This data set can be described thus: solvent given as SMILES.

Experimental findings from the Deep4Chem optical property database are described below.

The structures appear in SMILES notation. “And” between values parts separate entries of the source, which are not always exact repeats. Equal values may be shown once.

In the case of `Oc1cccc(/N=C/c2ccccc2Oc2ccccc2)c1`, the absorption maximum was found to be 322 nm (in C1CCCCC1); 327 nm (in C1CCOC1); 325 nm (in C1COCCO1); 328 nm (in CC#N); 323 nm (in CC(C)CO); 324 nm (in CC(C)O). The absorption maximum is 318 nm (in CCCCC); 320 nm (in CCCCCC); 329 nm (in CCCCCCCCO); 325 nm (in CCCCCCCO); 321 nm (in CCCCCCO); 331 nm (in CCCCO). Also, the absorption maximum came to 326 nm (in CCCCOC(C)=O); 328 nm (in CCCO); 327 nm (in CCO); 321 nm (in CCOC(C)=O); 327 nm (in CCOCC); 329 nm (in CN(C)C=O). The absorption maximum amounted to 328 nm (in CO); 329 nm (in CS(C)=O); 324 nm (in Cc1ccccc1); 327 nm (in Cc1ccccc1C); 328 nm (in ClC(Cl)Cl); 325 nm (in ClCCl). Moreover, the absorption maximum by setting is: (in N#Cc1ccccc1) 344 nm; (in OCCO) 328 nm; (in c1ccccc1) 328 nm.

Turning to `CCOC(=O)C1(O)c2cc3ccc4cccc5ccc(c2C(=O)N1C(C)(C)C)c3c45` (stereo unspecified), the absorption maximum (in ClC(Cl)Cl) was determined as 385 nm.

The molecule `CCCCCCCCc1ccc(-n2c3c(c4c2c2c(n4-c4ccc(CCCCCCCC)cc4)-c4ccccc4NB2c2ccccc2)B(c2ccccc2)Nc2ccccc2-3)cc1` returned an absorption maximum (in Cc1ccccc1) of 387 nm.

For the molecule `c1ccc(N(c2ccccc2)c2ccc(-c3nc(-c4ccc(N(c5ccccc5)c5ccccc5)cc4)c4ccccc4n3)cc2)cc1`, where the note is “in ClCCl”, the absorption maximum turned out to be 370 nm.

Turning to `CC1=[N+]2C(=C(c3ccccc3)c3ccc(/C=C/c4ccc(C(=C(c5ccccc5)c5ccccc5)c5ccccc5)cc4)n3[B-]2(F)F)C=C1`, the absorption maximum (in C1CCOC1) amounted to 585 nm.

Take `CCN1c2ccc(/C=N/Nc3ccccn3)cc2Sc2cc(-c3ccc(C#N)cc3)ccc21`: the absorption maximum is, setting by setting: (in C1CCOC1) 383 nm; (in CS(C)=O) 398 nm; (in Cc1ccccc1) 386 nm; (in ClCCl) 388 nm.

In the case of `CC1=c2c3c4cccc5cccc(c=3c(C)[n+]2[B-](F)(F)n2c(C)c3c(c21)-c1cccc2cccc-3c12)c54`, the absorption maximum (in ClC(Cl)Cl) amounted to 657 nm.

On to `F[B-]1(F)n2cccc2C=C2C=CC=[N+]21`, for which the absorption maximum by setting is: (in C1CCCCC1) 503.5 nm; (in CC(C)=O) 497.5 nm; (in CCCCCC) 502 nm; (in CCO) 498 nm; (in CCOC(C)=O) 498 nm; (in CO) 497 nm. In addition, the absorption maximum is 503 nm (in ClCCl) and 497 nm (in OCC(F)(F)F).

For the setting “in C1CCOC1”, `COc1cc2c(cc1-c1ccc(C#N)cc1)Cc1c3c(c4c(c1-2)-c1cc(OC)c(-c2ccc(C#N)cc2)cc1C4)C(=O)N(CCC(C)C)C3=O` had an absorption maximum of 409 nm.

In turn, `CCCCN(CCCC)c1ccc2c#cc3cc4c#cc5ccc(C(F)(F)F)cc5c#cc#cc5cc(C(F)(F)F)ccc5c#cc4cc3c#cc3ccc(N(CCCC)CCCC)cc3c#cc#cc2c1` came in with an absorption maximum (in ClCCl) of 450 nm.

As for `[NH3+]C(Cc1ccc(O)c(O)c1)C(=O)[O-]` (stereo unspecified), the absorption maximum (in O) is reported as 278 nm.

In turn, `N#Cc1c(N2CCCC2)cc(-c2ccccc2)c2c1-c1ccccc1C2` yielded an absorption maximum (in C1CCOC1) of 353 nm.

Where the note is “in Cc1ccccc1”, `CCCCCCCCc1ccc(-c2ccc(/C=C(\C#N)c3ccc(-c4cccc5cccc(-c6ccc(/C(C#N)=C/c7ccc(-c8ccc(CCCCCCCC)cc8)cc7)cc6)c45)cc3)cc2)cc1` displayed an absorption maximum of 350 nm.

`Cc1c(COC(=O)Cc2cccc3ccccc23)n2c(OCC(=O)Cc3cccc4ccccc34)c(C)c(=O)n2c1=O` registered an absorption maximum (in CCO) of 379 nm.

Where the note is “in C1CCOC1”, `C1=Cc2ccccc2C(=Cc2ccc(-c3ccc(C=C4c5ccccc5C=Cc5ccccc54)cc3)cc2)c2ccccc21` had an absorption maximum of 339 nm.

Turning to `CC(C)(C)c1ccc2c(c1)Cc1cc(C(C)(C)C)ccc1-2`, for the setting “in C1CCCCC1”, the absorption maximum turned out to be 308 nm.

`CC1=C2C=CC(c3ccccc3)=[N+]2[B-](F)(F)n2c1ccc2-c1ccccc1` returned an absorption maximum (in ClCCl) of 544 nm.

As for `N#Cc1cc2ccccc2oc1=O`, the absorption maximum was found to be 342 nm (in C1CCCCC1); 338 nm (in C1CCOC1); 336 nm (in CC#N); 339 nm (in CCOC(C)=O); 334 nm (in CS(C)=O); 340 nm (in ClC(Cl)Cl).

On to `CCN(CC)c1ccc2cc(C#N)c(=N)oc2c1`, for which the absorption maximum (in ClCCl) was 428 nm.

Turning to `COC1=[N+]2C(=C(c3ccc(C)cc3)c3ccc(OC)n3[B-]2(F)F)C=C1`, the absorption maximum runs as follows: (in C1CCCCC1) 513 nm; (in C1CCOC1) 514 nm; (in CC#N) 510 nm; (in CCOC(C)=O) 512 nm; (in CO) 510 nm; (in Cc1ccccc1) 517 nm. Further, the absorption maximum (in ClC(Cl)Cl) is reported as 516 nm.

As for `CCC1=C(C)C(=O)n2c1cc1c(CCC(=O)OC)c(C)c(C)n1c2=O`, the absorption maximum (in CC#N) stood at 420 nm; the absorption maximum (in CC(C)=O) is given as 420 nm; the absorption maximum (in CO) is on record as 426 nm; the absorption maximum (in CS(C)=O) came to 427 nm; the absorption maximum (in ClC(Cl)Cl) is 429 nm; the absorption maximum (in c1ccccc1) is listed as 425 nm.

The molecule `Cc1ccc(C2=C3C=CC(Oc4ccccc4)=[N+]3[B-](F)(F)n3c(Oc4ccccc4)ccc32)cc1` returned an absorption maximum (in C1CCOC1) of 516 nm.

On to `Cc1cc2ccccc2c2c1c1ccccc1n2-c1ccc(C#N)cc1`, for which, under “in ClCCl”, the absorption maximum is listed as 303 nm.

`CC[N+](CC)=c1ccc2c(-c3ccccc3C(=O)O)c3oc4cc(N)ccc4c3oc-2c1`: the absorption maximum is, setting by setting: (in CCO) 572 nm; (in ClCCl) 581 nm; (in O) 581 nm.

For the molecule `CCn1c2ccccc2c2cccc(N(c3ccccc3)c3ccccc3)c21`, for the setting “in ClCCl”, the absorption maximum was found to be 353 nm.

Molecule `CCCCCCN(CCCCCC)c1ccc(C#Cc2ccc(N(CCCCCC)CCCCCC)cc2)cc1` came in with an absorption maximum (in CO) of 380 nm and an absorption maximum (in ClCCl) of 387 nm.

As for `c1ccc(-c2ccc(-c3ccc(-n4c5ccccc5c5ccccc54)cc3)c3nsnc23)cc1`, the absorption maximum runs as follows: (in C1CCOC1) 394 nm; (in CC(C)=O) 382 nm; (in CCCCCC) 394 nm; (in CCOCC) 392 nm.

Take `Nc1nc2ccc(Br)cc2s1`: the absorption maximum is, setting by setting: (in CC#N) 269 nm; (in ClCCl) 268 nm.

Turning to `Cc1cccc(C)c1-c1cc2c(C)c3c4ccc5nc6c(ccc7c8c(C)c9cc(-c%10c(C)cccc%10C)c(-c%10c(C)cccc%10C)cc9c(C)c8c76)nc5c4c3c(C)c2cc1-c1c(C)cccc1C`, the absorption maximum (in ClC(Cl)Cl) was 501 nm.

Take `C(=C1c2ccccc2CCc2ccccc21)c1ccc(-c2ccc(C=C3c4ccccc4CCc4ccccc43)cc2)cc1`: the absorption maximum (in C1CCOC1) came out at 335 nm.

`Fc1cc(-c2ccc(-c3nc4ccccc4[nH]3)cc2)ccc1-c1ccc(-c2nc3ccccc3[nH]2)cc1` came in with an absorption maximum (in CN(C)C=O) of 343 nm.

Where the note is “in ClC(Cl)Cl”, `CC1=C(/C=C/c2ccccc2)C(C)=[N+]2C1=C(c1ccccc1)c1c(C)c(/C=C/c3ccccc3)c(C)n1[B-]2(F)F` showed an absorption maximum of 575 nm.

Take `CC(C)[Si](C#Cc1c2c(=O)c3ccccc3c2c(C#C[Si](C(C)C)(C(C)C)C(C)C)c2c(=O)c3ccccc3c12)(C(C)C)C(C)C`: the absorption maximum (in ClC(Cl)Cl) turned out to be 525 nm.

On to `CCCCOC(=O)c1cc(Oc2ccc(C(C)(C)C)cc2)c2c3c(Cl)cc4c5c(cc(Cl)c(c6c(Oc7ccc(C(C)(C)C)cc7)cc(C(=O)OCCCC)c1c26)c53)C(=O)N(c1c(C(C)C)cccc1C(C)C)C4=O`, for which the absorption maximum (in Cc1ccccc1) is recorded as 529 nm.

With `CCN(CC)c1ccc2cc(-c3nc4ccccc4s3)c(=O)oc2c1`, the absorption maximum runs as follows: (in C1CCCCC1) 425.4 nm; (in CC1CCCCC1) 425.4 nm; (in CC#N) 454 nm and 447 nm; (in CCC(C)CC) 425 nm; (in CCCCCC) 425 nm; (in CCO) 460 nm. Under “in CCOC(C)=O”, the absorption maximum was 439.4 nm.

For the setting “in Cc1ccccc1”, `CC1(C)c2ccccc2N(c2ccc(-c3ncc(C#N)cn3)cc2)c2ccccc21` yielded an absorption maximum of 396 nm.

Where the note is “in CO”, `O=C(O)CCCOc1cc2ccc3cccc4ccc(c1)c2c34` yielded an absorption maximum of 382 nm.

On to `COc1ccc2c(c1)c1ccccc1n2-c1nc2ccccc2nc1-n1c2ccccc2c2cc(OC)ccc21`, for which the absorption maximum (in Cc1ccccc1) is recorded as 423 nm.

For `COc1ccc2cc(/C=C/c3ccc([N+](=O)[O-])cc3)c(=O)oc2c1`, the absorption maximum (in CC#N) came to 392 nm.

For `COc1ccc(-c2nc(-c3ccc(C)cc3)c3ccccn23)cc1`, the absorption maximum (in ClC(Cl)Cl) amounted to 303 nm.

On to `CN(C)c1cc2c(cc1F)c(=O)c1cc(F)c(N3CCCCC3)cc1n2C`, for which the absorption maximum (in CCO) is reported as 364 nm.

Molecule `c1ccc(N(c2ccccc2)c2c3ccccc3cc3ccccc23)cc1` gave an absorption maximum (in Cc1ccccc1) of 428 nm.

On to `O=C1c2ccc(N(c3ccccc3)c3ccccc3)cc2C(=O)c2ccc(N(c3ccccc3)c3ccccc3)cc21`, for which, under “in Cc1ccccc1”, the absorption maximum is reported as 449 nm.

Take `CCCCCCn1c(=O)c2c3oc4ccccc4sc3c3c(=O)n(CCCCCC)c(=O)c3c2c1=O`: the absorption maximum (in ClCCl) turned out to be 437 nm.

For `O=S(=O)([O-])c1cccc2c([O-])cccc12`, for the setting “in O”, the absorption maximum was 346 nm.

Where the note is “in ClCCl”, `CCN(CC)c1ccc2c(-c3ccccc3C(=O)O)c3c([o+]c2c1)/C(=C/c1ccc2c(c1)c1ccccc1n2CC)CCC3` gave an absorption maximum of 646 nm.
